The source of these data is ChEMBL document CHEMBL1130766, “Phosphodiesterase inhibitory properties of losartan. Design and synthesis of new lead compounds” (Bioorg Med Chem Lett, 1998).

The target in test [1] is T1, Phosphodiesterase 3 (Homo sapiens, UniProt Q14432+Q13370). The test can be described thus: Inhibition of guinea pig ventricular Phosphodiesterase 3 (PDE 3) at 200 uM. It counts as protein assay. The settings on record: Cavia porcellus, target entry is the homologue from another species.
The target of test [2] is T2, Phosphodiesterase 4 (Homo sapiens, UniProt P27815+Q08499+Q07343+Q08493). In words: Inhibitory effect in cAMP-specific Phosphodiesterase 4 (PDE 4) isolated from guinea pig ventricular tissue. It counts as protein assay, Cavia porcellus. The settings on record: target entry is the homologue from another species.
The target of test [3] is T1, Phosphodiesterase 3. In words: Inhibitory effect in cGMP-inhibited Phosphodiesterase 3 (PDE 3) isolated from guinea pig ventricular tissue. The format is protein assay, Cavia porcellus. The settings on record: target entry is the homologue from another species.
For test [4], the target named is T2, Phosphodiesterase 4. The test can be described thus: Inhibition of guinea pig ventricular Phosphodiesterase 4 (PDE 4) at 200 uM. The format is protein assay. Particulars: Cavia porcellus, target entry is the homologue from another species.
For test [5], the target named is T1, Phosphodiesterase 3. In words: Inhibition of guinea pig ventricular Phosphodiesterase 3 (PDE 3). The format is protein assay, Cavia porcellus. The settings on record: target entry is the homologue from another species.

As for `CCCCN(Cc1ccccc1)c1nc2nc3ccccc3n2s1`, the inhibition (in general, the relative decrease from the control value, in per cent) in test [1] is 0%. Further, the IC50 – broadly, the concentration that inhibits the measured activity by half – in test [2] is 90 µM.

For the molecule `CCN(Cc1ccccc1-n1ncnn1)c1nc2nc3ccccc3n2s1`, in test [1], the inhibition was 15%. The molecule also showed an IC50 in test [2] of 107 µM.

As to `CCCCc1nc(SCc2ccc(-c3ccccc3-c3nn[nH]n3)cc2)c2ccccc2n1`, the IC50 in test [2] came to 2.9 µM; in test [3] it was 8 µM.

Consider `CCCc1nc(SCc2ccc(-c3ccccc3-c3nn[nH]n3)cc2)c2ccccc2n1`, for which the 50% inhibitory concentration (IC50) in test [2] worked out at 3.8 µM; in test [3], 6.8 µM.

In the case of `CCCCN(Cc1ccc(-c2ccccc2-n2ncnn2)cc1)c1nc2nc3ccccc3n2s1`, the inhibition in test [1] was 50%; in test [4], 48%.

Regarding `CCCCc1nc(OCc2ccc(-c3ccccc3-c3nn[nH]n3)cc2)c2ccccc2n1`, the results for the IC50 in test [2] and in test [3] were 7.9 µM and 5.4 µM, respectively.

`CCCCN(Cc1ccccc1-c1ccccc1)c1nc2nc3ccccc3n2s1` showed an inhibition in test [1] of 31%. In test [2], the IC50 was 30 µM.

Molecule `CCCCN(Cc1ccccc1-c1ccccc1)c1nc2c3c(ccc2s1)CCCC3` gave an inhibition in test [1] of 15%. Moreover, in test [2], the concentration for half-maximal inhibition (IC50) turned out to be 42 µM.

For the molecule `CCc1nc(SCc2ccc(-c3ccccc3-c3nn[nH]n3)cc2)c2ccccc2n1`, the IC50 in test [2] was found to be 3.3 µM; in test [3], 7 µM.

Take `CCc1nc(NCc2ccc(-c3ccccc3-c3nn[nH]n3)cc2)c2ccccc2n1`: the IC50 in test [2] was determined as 21 µM; in test [3], 24 µM.

Turning to `Cc1nc(SCc2ccc(-c3ccccc3-c3nn[nH]n3)cc2)c2ccccc2n1`, the half-inhibitory concentration (IC50) in test [2] was found to be 15 µM; in test [3], 4.8 µM.

With `CCCc1nc(SCc2ccc(-c3ccccc3-c3nn[nH]n3)cc2)c2cc(C)cc(C)c2n1`, the half-maximal inhibitory concentration (IC50) in test [2] is 8.6 µM; in test [3], 11 µM.

In test [5], `CCCCc1nc(Cl)c(CO)n1Cc1ccc(-c2ccccc2-c2nnn[nH]2)cc1` [LOSARTAN] returned an IC50 of 13 µM.

`CCCCc1nc(NCc2ccc(-c3ccccc3-c3nn[nH]n3)cc2)c2ccccc2n1`: the IC50 in test [2] is 7.6 µM; in test [3] it was 16 µM.

Consider `CC(C)c1nc(SCc2ccc(-c3ccccc3-c3nn[nH]n3)cc2)c2ccccc2n1`, for which the IC50 in test [2] turned out to be 3.8 µM; in test [3], 2.4 µM.

For the molecule `CCN(Cc1ccccc1-c1ccccc1)c1nc2nc3ccccc3n2s1`, the inhibition in test [1] is 41%. This molecule came in with an IC50 in test [2] of 48 µM.

In the case of `CCc1nc(OCc2ccc(-c3ccccc3-c3nn[nH]n3)cc2)c2ccccc2n1`, the IC50 came to 14 µM in test [2] and 5.8 µM in test [3].

Take `CCCc1nc(SCc2ccc(-c3ccccc3-c3nn[nH]n3)cc2)c2cc(C)ccc2n1`: the IC50 is 3.8 µM in test [2] and 2.4 µM in test [3].

For `CCCCN(Cc1ccccc1-n1ncnn1)c1nc2nc3ccccc3n2s1`, the figures for the inhibition in test [1] and in test [4] were 32% and 44%, respectively.

As for `CCN(Cc1ccc(-c2ccccc2-n2ncnn2)cc1)c1nc2nc3ccccc3n2s1`, the IC50 came to 125 µM in test [5] and 74 µM in test [2].

For the molecule `CCN(Cc1ccccc1)c1nc2nc3ccccc3n2s1`, in test [1], the inhibition stood at 12%. For the same molecule, in test [2], the IC50 was 32 µM.
